Measured values published in patent publication US20250326814A1, “MODIFIED OXYNTOMODULIN AND METHODS OF USE THEREOF” (OPKO BIOLOGICS LTD., priority 2024, published 2025).
Non-standard residues stand in square brackets, D forms with d. Residues, ends and D or L forms follow the SMILES beside them. No end group written: not given here. *: point of attachment. X3 = O=C(O)CCCCCCCCCCCCCCCCCCC(=O)N[C@@H](CCC(=O)N[C@@H](CCC(=O)O)C(=O)NCCOCCOCC(=O)NCCOCCOCC(=O)NCCOCCOCC(=O)N[C@@H](CCCCNC(=O)C*)C(=O)NCC(=O)O)C(=O)O; X4 = O=C(O)CCCCCCCCCCCCCCCCC(=O)N[C@@H](CCC(=O)NCCOCCOCC(=O)NCCOCCOCC(=O)N[C@@H](CCCCNC(=O)C*)C(=O)NCC(=O)O)C(=O)O; Aib = CC(C)(N)C(=O)O

Key:
[1] = biological target: T1, glucagon-like peptide-1 (GLP1) receptor (Homo sapiens, UniProt P43220); assay: GLP-1 activity EC50 of OXM analogs and GLP-1 therapeutics (Example 4, Table 9); format: cell-based; details: GLP-1 activity; Table 9; read-out: EC50
T1 construct: expressed in transfected cells; host or cells: CHO-K1
T1 sequence (P43220 24-463): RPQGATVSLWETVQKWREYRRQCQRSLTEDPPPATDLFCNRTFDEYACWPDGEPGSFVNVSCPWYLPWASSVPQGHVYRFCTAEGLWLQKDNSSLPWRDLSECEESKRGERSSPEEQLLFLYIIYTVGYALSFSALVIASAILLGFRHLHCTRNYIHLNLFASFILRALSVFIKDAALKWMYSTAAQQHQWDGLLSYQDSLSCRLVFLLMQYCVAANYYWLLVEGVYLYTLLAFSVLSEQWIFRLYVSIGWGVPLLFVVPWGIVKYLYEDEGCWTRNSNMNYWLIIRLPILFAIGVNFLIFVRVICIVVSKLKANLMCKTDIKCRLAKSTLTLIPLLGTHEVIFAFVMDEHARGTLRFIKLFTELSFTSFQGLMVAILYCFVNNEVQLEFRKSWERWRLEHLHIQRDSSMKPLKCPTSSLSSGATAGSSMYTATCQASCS
Description: The potencies of the modified OXM analogs newly disclosed in the present application, the OXM Analog alone, and the PEGylated OXM analog were examined and compared by measuring the EC50 of both receptors, glucagon-like peptide-1 (GLP1) and glucagon (GCGR).

GLP1 = GLP1 (Homo sapiens, UniProt P43220); assay: CBA potency assay, GLP1 (Tables 10 and 11); format: cell-based
Sequence of GLP1 (P43220 24-463): as above
Description: (§2) The impact of the longevity-enabling molecule (PEG Vs. FA-peptide/binder complex) on the peptide potency was studied.

GCGR = GCGR (Homo sapiens, UniProt P47871); assay: CBA potency assay, GCGR (Tables 10 and 11); format: cell-based
Sequence of GCGR (P47871 26-477): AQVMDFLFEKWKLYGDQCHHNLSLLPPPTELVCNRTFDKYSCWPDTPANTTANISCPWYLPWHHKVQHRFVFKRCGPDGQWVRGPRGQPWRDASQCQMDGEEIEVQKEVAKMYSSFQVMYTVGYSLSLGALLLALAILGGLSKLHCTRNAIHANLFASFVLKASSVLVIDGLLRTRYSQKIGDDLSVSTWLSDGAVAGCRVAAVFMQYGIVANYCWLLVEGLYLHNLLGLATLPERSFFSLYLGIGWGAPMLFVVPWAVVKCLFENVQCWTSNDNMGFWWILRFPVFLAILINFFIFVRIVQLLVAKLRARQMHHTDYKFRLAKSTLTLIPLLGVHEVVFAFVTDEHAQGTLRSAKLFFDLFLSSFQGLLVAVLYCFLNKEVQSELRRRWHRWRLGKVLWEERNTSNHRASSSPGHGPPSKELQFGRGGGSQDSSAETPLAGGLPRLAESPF
Description: as §2

DIO mice [2] = assay: Liver H&E staining for lipid droplets / liver lipid in DIO mice; format: in vivo; details: 15 nmol/kg QD SC
Procedure: In summary, glass slides with paraffin embedded sections were deparaffinated in xylene and rehydrated in series of graded ethanol.
Slides treated with histochemical and immunohistochemical stains were scanned using a 20× objective in a ScanScope AT slide scanner (Aperio).
Hematoxylin & Eosin (H&E) staining: Sections of FFPE tissue were incubated in Mayer's Hematoxylin (Dako), washed in tap water, stained in Eosin Y solution (Sigma-Aldrich), dehydrated in graded ethanol and cover slipped.
(§1) Sixty C57BL/6JRj male mice were fed a high fat diet (60% HFD, D12492—Ssniff) for 20 weeks before treatment start. […] Body weight and food intake (24 h) were measured daily. In week 3, an OGTT study was performed. Baseline and preterminal fasting blood glucose and plasma insulin were assessed. Preterminal plasma TC and TG were assessed. Terminal endpoints included liver and heart weight, liver TC, TG, […] and lipid content (HE staining).

DIO mice [3] = assay: Body weight and food intake in DIO mice, 4 weeks daily treatment; format: in vivo; details: for food consumption / cumulative food intake (FIG. 17B, 18B): OPK-88604 vs semaglutide; for cumulative food intake on day 28, P compared to Vehicle (FIG. 15): 15 nmol/kg q.d. SC, 4 weeks
Procedure: The animals were individually weighed and analyzed for lipid and cholesterol levels prior to treatment and following completion of the study. The levels of fasting glucose and insulin levels were analyzed, and oral glucose tolerance test was performed and compared between groups The levels of plasma triglycerides and cholesterol were evaluated at the end of study and compared to base levels prior to treatment. Levels of total cholesterol, triglycerides and glycogen were also examined at the end of study. Histology of liver was used to analyze for lipid droplets in the liver. All tests were conducted using routine methods known in the art.
The mice used in the studies were the gubra diet-induced obese (DIO) mouse model. This mouse model is fed a high fat diet that results in rapid weight gain. The DIO mice were based on male C57BI/6J mice and ready for experiment after 18 weeks on a 60% high fat diet.
To ensure accurate monitoring of weight changes over the course of the study, the animals were weighed daily with precision, prior to dosing at 7:00 AM. Body weight data was recorded in two formats: (1) Absolute measurements: The direct weight of the animal each day, and (2) Relative measurements: The weight expressed as a percentage relative to the body weight recorded on Day 1.
as §1

DIO mice [4] = assay: Body composition (fat and lean tissue mass) in DIO mice; format: in vivo
Procedure: The body composition of mice was assessed by an EchoMRI 3 in 1 Body composition analyzer (EchoMRI, US). Non-anaesthetized animals were placed in a plastic tube inside the MRI scanner for approximately 80 seconds. The body composition was reported as fat mass and fat free mass (lean mass).
as §1

DIO mice [5] = assay: Plasma cholesterol and triglyceride in DIO mice; format: in vivo; details: 15 nmol/kg q.d.
Procedure: For termination blood samples, during anesthesia with isoflurane, the abdominal cavity was opened, and cardiac blood was drawn with a syringe into a Microvette/Vacuette of appropriate dimensions with anticoagulant and mixed by inversion 5 times. Blood was placed at 4° C. until centrifuged at 3000 g for 10 minutes. The plasma supernatants were transferred to new tubes and immediately frozen on dry ice. The samples were stored at −70° C.
Alanine transaminase (ALT), Aspartate transaminase (AST), Triglycerides (TG) and Total Cholesterol (TC): Blood samples were collected in heparinized tubes and plasma was separated and stored at −70° C. until analysis. Samples were measured using commercial kits (Roche Diagnostics), on the cobas c 501 autoanalyzer.
as §1

DIO mice [6] = assay: Fasting blood glucose and plasma insulin in DIO mice; format: in vivo; details: 15 nmol/kg q.d.
Procedure: For in vivo blood samples, tail-vein, tongue or cheek blood was collected in a Microvette tube of appropriate dimensions with anticoagulant and mixed by inversion 5 times. Blood was placed at 4° C. until centrifuged at 3000 g for 10 minutes. The plasma supernatants were transferred to new tubes and immediately frozen on dry ice. The samples were stored at −70° C.
Insulin: Blood samples were collected in heparinized tubes and plasma was separated and stored at −70° C. until analysis. Insulin was measured using the commercial MSD platform (Meso Scale Diagnostics).
as §1

CC[C@H](C)[C@H](NC(=O)[C@H](CC(N)=O)NC(=O)[C@H](CC(N)=O)NC(=O)[C@H](CCCNC(=N)N)NC(=O)[C@H](CC(N)=O)NC(=O)[C@H](CCCNC(=N)N)NC(=O)CNC(=O)C(C)(C)NC(=O)[C@H](CC(N)=O)NC(=O)[C@H](CC(C)C)NC(=O)[C@H](CC(C)C)NC(=O)[C@H](Cc1c[nH]c2ccccc12)NC(=O)[C@H](CCC(N)=O)NC(=O)[C@@H](NC(=O)[C@H](Cc1ccccc1)NC(=O)[C@H](CCC(=O)O)NC(=O)[C@H](CCC(N)=O)NC(=O)[C@H](C)NC(=O)[C@H](CCCCN)NC(=O)[C@H](CCCCN)NC(=O)[C@H](CO)NC(=O)[C@H](CC(=O)O)NC(=O)[C@H](CC(C)C)NC(=O)[C@H](Cc1ccc(O)cc1)NC(=O)[C@H](CCCCN)NC(=O)[C@H](CO)NC(=O)[C@H](Cc1ccc(O)cc1)NC(=O)[C@H](CC(=O)O)NC(=O)[C@H](CO)NC(=O)[C@@H](NC(=O)[C@H](Cc1ccccc1)NC(=O)[C@@H](NC(=O)CNC(=O)[C@H](CCC(N)=O)NC(=O)C(C)(C)NC(=O)[C@@H](N)Cc1c[nH]cn1)[C@@H](C)O)[C@@H](C)O)C(C)C)C(=O)N[C@@H](C)C(=O)N[C@@H](CS)C(N)=O [MOD-604 KPI] (HELM PEPTIDE1{H.[Aib].Q.G.T.F.T.S.D.Y.S.K.Y.L.D.S.K.K.A.Q.E.F.V.Q.W.L.L.N.[Aib].G.R.N.R.N.N.I.A.C.[am]}$$$$V2.0)
EC50 [1]: 0.13 nM | % EC50 compare to KPI (GLP1) (GLP1; Table 10): 45% | Activity fold reduction compared to OPK-88003 KPI (GLP1) (GLP1; Table 10): 2.2 fold | EC50 (GLP1; Table 10): 0.282 nM | % EC50 compare to KPI (GCGR) (GCGR; Table 10): 72% | Activity fold reduction compared to OPK-88003 KPI (GCGR) (GCGR; Table 10): 1.4 fold | EC50 (GCGR; Table 10): 0.83 nM | EC50 ratio (GCGR\GLP-1R) (GCGR; Table 10): 2.9

CC[C@H](C)[C@H](NC(=O)[C@H](CC(N)=O)NC(=O)[C@H](CC(N)=O)NC(=O)[C@H](CCCNC(=N)N)NC(=O)[C@H](CC(N)=O)NC(=O)[C@H](CCCNC(=N)N)NC(=O)CNC(=O)C(C)(C)NC(=O)[C@H](CC(N)=O)NC(=O)[C@H](CC(C)C)NC(=O)[C@H](CC(C)C)NC(=O)[C@H](Cc1c[nH]c2ccccc12)NC(=O)[C@H](CCC(N)=O)NC(=O)[C@@H](NC(=O)[C@H](Cc1ccccc1)NC(=O)[C@H](CCC(=O)O)NC(=O)[C@H](CCC(N)=O)NC(=O)[C@H](C)NC(=O)[C@H](CCCCN)NC(=O)[C@H](CCCCN)NC(=O)[C@H](CO)NC(=O)[C@H](CC(=O)O)NC(=O)[C@H](CC(C)C)NC(=O)[C@H](Cc1ccc(O)cc1)NC(=O)[C@H](CCCCN)NC(=O)[C@H](CO)NC(=O)[C@H](Cc1ccc(O)cc1)NC(=O)[C@H](CC(=O)O)NC(=O)[C@H](CO)NC(=O)[C@@H](NC(=O)[C@H](Cc1ccccc1)NC(=O)[C@@H](NC(=O)CNC(=O)[C@H](CCC(N)=O)NC(=O)C(C)(C)NC(=O)[C@@H](N)Cc1c[nH]cn1)[C@@H](C)O)[C@@H](C)O)C(C)C)C(=O)N[C@@H](C)C(=O)N[C@@H](CSCC(=O)NCCCC[C@H](NC(=O)COCCOCCNC(=O)COCCOCCNC(=O)CC[C@H](NC(=O)CCCCCCCCCCCCCCCCC(=O)O)C(=O)O)C(=O)NCC(=O)O)C(N)=O [Variant 2] (H-H[Aib]QGTFTSDYSKYLDSKKAQEFVQWLLN[Aib]GRNRNNIAC(X4)-NH2)
EC50 [1]: 0.1 nM

CC[C@H](C)[C@H](NC(=O)[C@H](CC(N)=O)NC(=O)[C@H](CC(N)=O)NC(=O)[C@H](CCCNC(=N)N)NC(=O)[C@H](CC(N)=O)NC(=O)[C@H](CCCNC(=N)N)NC(=O)CNC(=O)C(C)(C)NC(=O)[C@H](CC(N)=O)NC(=O)[C@H](CC(C)C)NC(=O)[C@H](CC(C)C)NC(=O)[C@H](Cc1c[nH]c2ccccc12)NC(=O)[C@H](CCC(N)=O)NC(=O)[C@@H](NC(=O)[C@H](Cc1ccccc1)NC(=O)[C@H](CCC(=O)O)NC(=O)[C@H](CCC(N)=O)NC(=O)[C@H](C)NC(=O)[C@H](CCCCN)NC(=O)[C@H](CCCCN)NC(=O)[C@H](CO)NC(=O)[C@H](CC(=O)O)NC(=O)[C@H](CC(C)C)NC(=O)[C@H](Cc1ccc(O)cc1)NC(=O)[C@H](CCCCN)NC(=O)[C@H](CO)NC(=O)[C@H](Cc1ccc(O)cc1)NC(=O)[C@H](CC(=O)O)NC(=O)[C@H](CO)NC(=O)[C@@H](NC(=O)[C@H](Cc1ccccc1)NC(=O)[C@@H](NC(=O)CNC(=O)[C@H](CCC(N)=O)NC(=O)C(C)(C)NC(=O)[C@@H](N)Cc1c[nH]cn1)[C@@H](C)O)[C@@H](C)O)C(C)C)C(=O)N[C@@H](C)C(=O)N[C@@H](CSCC(=O)NCCCC[C@H](NC(=O)COCCOCCNC(=O)COCCOCCNC(=O)COCCOCCNC(=O)[C@H](CCC(=O)O)NC(=O)CC[C@H](NC(=O)CCCCCCCCCCCCCCCCCCC(=O)O)C(=O)O)C(=O)NCC(=O)O)C(N)=O [Variant 3] (H-H[Aib]QGTFTSDYSKYLDSKKAQEFVQWLLN[Aib]GRNRNNIAC(X3)-NH2)
EC50 [1]: 0.15 nM

OPK-88003 FA-conjugate: either the modified OXM of Formula XXII or the modified OXM of Formula XXIII (H[Aib]QGTFTSDYSKYLDSKKAQEFVQWLLN[Aib]GRNRNNIACC; not fully specified (C-terminus); also: fatty acid binder on Cys38 or Cys39, isomer not given here)
Activity fold reduction compared to OPK-88003 KPI (GLP1) (GLP1; Table 11, without HSA): non | EC50 ratio (GCGR\GLP-1R) (GCGR; Table 10): 7.6 | EC50 ratio (GCGR\GLP-1R) (GCGR; Table 11, + HSA): 23.3 | EC50 ratio (GCGR\GLP-1R) (GCGR; Table 11, without HSA): 15.2

Semaglutide
relative liver lipid / total liver lipid, P compared to Vehicle (FIG. 31A, 31B) (DIO mice [2]): < 0.05 | absolute body weight at day 28, P compared to Vehicle (FIG. 16A) (DIO mice [3]; 15 nmol/kg QD SC): < 0.01 | food consumption / cumulative food intake (FIG. 17B, 18B) (DIO mice [3]; 15 nmol/kg daily, 28 days): reduced food consumption significantly more than OPK-88604 treatment | weight loss from baseline (FIG. 17A, 18A) (DIO mice [3]; 15 nmol/kg daily, 28 days, OPK-88604 vs semaglutide vs placebo): similar | food consumption / cumulative food intake (FIG. 17B, 18B) (DIO mice [3]; 15 nmol/kg daily, 28 days, listed as semaglutide): significantly decreased | cumulative food intake on day 28, P compared to Vehicle (FIG. 15) (DIO mice [3]): < 0.05 | change in lean tissue mass from baseline, P compared to Vehicle (FIG. 23B) (DIO mice [4]; 15 nmol/kg QD SC): < 0.05 | relative fat tissue mass / relative lean tissue mass at week 4, P compared to Vehicle (FIG. 22A, 22B) (DIO mice [4]; 15 nmol/kg QD SC): < 0.05 | relative lean body mass and fat mass change from baseline on day 28 (FIG. 24A, 24B) (DIO mice [4]; 15 nmol/kg daily, 28 days, OPK-88604 vs semaglutide): statistically similar

Tirzepatide [reference compound]
relative liver lipid / total liver lipid, P compared to Vehicle (FIG. 31A, 31B) (DIO mice [2]): < 0.01 | cumulative food intake on day 28, P compared to Vehicle (FIG. 15) (DIO mice [3]): < 0.001 | plasma triglyceride at termination, P compared to Vehicle (FIG. 32B) (DIO mice [5]): < 0.01 | absolute fat tissue mass at week 4, P compared to Vehicle (FIG. 21A) (DIO mice [4]; 15 nmol/kg QD SC): < 0.001 | relative fat tissue mass / relative lean tissue mass at week 4, P compared to Vehicle (FIG. 22A, 22B) (DIO mice [4]; 15 nmol/kg QD SC): < 0.001 | glucose tolerance plasma insulin at week 1, P compared to Vehicle (FIG. 36A) (DIO mice [6]): < 0.01 | glucose tolerance plasma insulin at week 4, P compared to Vehicle (FIG. 36B) (DIO mice [6]): < 0.01
